{"source": "paper PMC5078040", "about": "(Oncotarget, 2016)", "key": {"PDGFRB": {"target": "T1, PDGFRB (Homo sapiens, UniProt P09619)", "T1 construct": "purchased DiscoveRx KINOMEscan", "test": "KinomeScan", "type": "binding", "conditions": "1uM"}, "YSK4": {"target": "T2, YSK4 (Homo sapiens, UniProt Q56UN5)", "T2 construct": "purchased DiscoveRx KINOMEscan", "test": "KinomeScan", "type": "binding", "conditions": "1uM"}, "MYLK2": {"target": "T3, MYLK2 (Homo sapiens, UniProt Q9H1R3)", "T3 construct": "purchased DiscoveRx KINOMEscan", "test": "KinomeScan", "type": "binding", "conditions": "1uM"}, "ABL1-phosphorylated": {"target": "T4, ABL1-phosphorylated (Homo sapiens, UniProt P00519)", "T4 construct": "purchased DiscoveRx KINOMEscan", "test": "KinomeScan", "type": "binding", "conditions": "1uM"}, "ERK8": {"target": "T5, ERK8 (Homo sapiens, UniProt Q8TD08)", "T5 construct": "purchased DiscoveRx KINOMEscan", "test": "KinomeScan", "type": "binding", "conditions": "1uM"}, "DDR1": {"target": "T6, DDR1 (Homo sapiens, UniProt Q08345)", "T6 construct": "purchased DiscoveRx KINOMEscan", "test": "KinomeScan", "type": "binding", "conditions": "1uM"}, "FGFR3": {"target": "T7, FGFR3 (Homo sapiens, UniProt P22607)", "T7 construct": "purchased DiscoveRx KINOMEscan", "T7 sequence (P22607 23-806)": "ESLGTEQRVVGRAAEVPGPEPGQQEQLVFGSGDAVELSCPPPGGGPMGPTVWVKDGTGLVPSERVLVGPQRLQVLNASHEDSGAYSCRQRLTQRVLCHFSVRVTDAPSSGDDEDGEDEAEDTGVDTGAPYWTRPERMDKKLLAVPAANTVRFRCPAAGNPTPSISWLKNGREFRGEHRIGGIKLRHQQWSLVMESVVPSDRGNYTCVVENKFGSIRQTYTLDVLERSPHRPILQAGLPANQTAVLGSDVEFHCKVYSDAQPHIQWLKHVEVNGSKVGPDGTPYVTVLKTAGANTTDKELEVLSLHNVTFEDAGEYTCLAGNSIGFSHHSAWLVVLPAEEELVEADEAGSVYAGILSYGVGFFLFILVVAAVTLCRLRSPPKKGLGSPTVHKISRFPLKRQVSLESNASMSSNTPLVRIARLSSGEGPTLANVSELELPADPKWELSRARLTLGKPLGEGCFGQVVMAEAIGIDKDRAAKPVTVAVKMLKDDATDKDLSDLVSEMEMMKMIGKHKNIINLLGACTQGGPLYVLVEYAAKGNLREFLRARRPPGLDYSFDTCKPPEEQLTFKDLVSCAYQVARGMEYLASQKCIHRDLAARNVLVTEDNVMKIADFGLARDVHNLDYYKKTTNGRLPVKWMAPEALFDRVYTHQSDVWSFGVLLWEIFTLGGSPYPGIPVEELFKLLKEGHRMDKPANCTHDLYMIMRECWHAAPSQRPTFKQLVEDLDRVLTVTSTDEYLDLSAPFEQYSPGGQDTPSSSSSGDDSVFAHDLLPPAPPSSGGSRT", "test": "KinomeScan", "type": "binding", "conditions": "1uM"}, "RAF1": {"target": "T8, RAF1 (Homo sapiens, UniProt P04049)", "T8 construct": "purchased DiscoveRx KINOMEscan", "test": "KinomeScan", "type": "binding", "conditions": "1uM"}, "DCAMKL2": {"target": "T9, DCAMKL2 (Homo sapiens, UniProt Q8N568)", "T9 construct": "purchased DiscoveRx KINOMEscan", "test": "KinomeScan", "type": "binding", "conditions": "1uM"}, "TNIK": {"target": "T10, TNIK (Homo sapiens, UniProt Q9UKE5)", "T10 construct": "purchased DiscoveRx KINOMEscan", "test": "KinomeScan", "type": "binding", "conditions": "1uM"}, "MKNK2": {"target": "T11, MKNK2 (Homo sapiens, UniProt Q9HBH9)", "T11 construct": "purchased DiscoveRx KINOMEscan", "test": "KinomeScan", "type": "binding", "conditions": "1uM"}, "LRRK2": {"target": "T12, LRRK2 (Homo sapiens, UniProt Q5S007)", "T12 construct": "purchased DiscoveRx KINOMEscan", "test": "KinomeScan", "type": "binding", "conditions": "1uM"}, "SRMS": {"target": "T13, SRMS (Homo sapiens, UniProt Q9H3Y6)", "T13 construct": "purchased DiscoveRx KINOMEscan", "test": "KinomeScan", "type": "binding", "conditions": "1uM"}, "DYRK1A": {"target": "T14, DYRK1A (Homo sapiens, UniProt Q13627)", "T14 construct": "purchased DiscoveRx KINOMEscan", "test": "KinomeScan", "type": "binding", "conditions": "1uM"}, "SNARK": {"target": "T15, SNARK (Homo sapiens, UniProt Q9H093)", "T15 construct": "purchased DiscoveRx KINOMEscan", "test": "KinomeScan", "type": "binding", "conditions": "1uM"}, "FAK": {"target": "T16, FAK (Homo sapiens, UniProt Q05397)", "T16 construct": "purchased DiscoveRx KINOMEscan", "test": "KinomeScan", "type": "binding", "conditions": "1uM"}, "PI3Kγ": {"target": "PI3Kγ (Homo sapiens, UniProt P48736)", "sequence (P48736 whole entry)": "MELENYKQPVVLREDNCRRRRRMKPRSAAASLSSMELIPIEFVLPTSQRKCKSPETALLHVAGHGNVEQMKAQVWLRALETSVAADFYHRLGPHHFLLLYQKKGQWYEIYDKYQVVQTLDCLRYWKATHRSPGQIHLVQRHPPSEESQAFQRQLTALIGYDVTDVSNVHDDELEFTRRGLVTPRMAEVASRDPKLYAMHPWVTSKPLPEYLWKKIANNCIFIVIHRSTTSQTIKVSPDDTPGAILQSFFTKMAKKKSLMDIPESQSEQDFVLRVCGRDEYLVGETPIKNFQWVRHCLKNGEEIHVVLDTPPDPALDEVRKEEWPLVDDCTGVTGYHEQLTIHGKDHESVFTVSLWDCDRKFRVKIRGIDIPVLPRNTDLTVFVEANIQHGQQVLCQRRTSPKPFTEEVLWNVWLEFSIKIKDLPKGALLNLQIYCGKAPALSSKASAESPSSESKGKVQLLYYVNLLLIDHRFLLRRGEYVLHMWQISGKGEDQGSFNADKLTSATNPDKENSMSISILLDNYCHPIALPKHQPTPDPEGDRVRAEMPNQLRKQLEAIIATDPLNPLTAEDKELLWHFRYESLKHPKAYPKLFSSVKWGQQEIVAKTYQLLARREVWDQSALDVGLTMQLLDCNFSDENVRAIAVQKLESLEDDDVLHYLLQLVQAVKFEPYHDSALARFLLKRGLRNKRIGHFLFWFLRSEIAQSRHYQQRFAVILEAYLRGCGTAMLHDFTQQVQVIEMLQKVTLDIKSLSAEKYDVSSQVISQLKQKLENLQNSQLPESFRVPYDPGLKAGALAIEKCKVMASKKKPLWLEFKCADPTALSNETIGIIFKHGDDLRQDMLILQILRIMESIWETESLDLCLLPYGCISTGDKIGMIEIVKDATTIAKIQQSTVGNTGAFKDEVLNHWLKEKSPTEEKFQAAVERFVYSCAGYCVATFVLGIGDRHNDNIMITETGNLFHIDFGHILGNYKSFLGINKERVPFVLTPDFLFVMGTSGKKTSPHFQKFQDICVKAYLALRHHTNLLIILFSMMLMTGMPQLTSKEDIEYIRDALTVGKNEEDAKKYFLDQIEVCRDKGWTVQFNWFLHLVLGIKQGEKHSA", "test": "biochemical", "procedure": "The reaction in each tube was started immediately by adding ATP and kept going for an hour under 37°C. After the tube cooled for 5 minutes at room temperature, 5 μL solvent reactions were carried out in a 384-well plate. Then 5 μL of ADP-Glo™ reagent was added into each well to stop the reaction and consume the remaining ADP within 40 minutes. At the end, 10 μL of kinase detection reagent was added into the well and incubated for 30 minutes to produce a luminescence signal. Luminescence signal was measured with an automated plate reader (Perkin-Elmer Envision) and each measurement was performed in triplicate."}, "RET(V804M)": {"target": "T17, RET(V804M) (Homo sapiens, UniProt P07949, V804M)", "T17 construct": "purchased DiscoveRx KINOMEscan", "T17 sequence (P07949 29-1114 V804M)": "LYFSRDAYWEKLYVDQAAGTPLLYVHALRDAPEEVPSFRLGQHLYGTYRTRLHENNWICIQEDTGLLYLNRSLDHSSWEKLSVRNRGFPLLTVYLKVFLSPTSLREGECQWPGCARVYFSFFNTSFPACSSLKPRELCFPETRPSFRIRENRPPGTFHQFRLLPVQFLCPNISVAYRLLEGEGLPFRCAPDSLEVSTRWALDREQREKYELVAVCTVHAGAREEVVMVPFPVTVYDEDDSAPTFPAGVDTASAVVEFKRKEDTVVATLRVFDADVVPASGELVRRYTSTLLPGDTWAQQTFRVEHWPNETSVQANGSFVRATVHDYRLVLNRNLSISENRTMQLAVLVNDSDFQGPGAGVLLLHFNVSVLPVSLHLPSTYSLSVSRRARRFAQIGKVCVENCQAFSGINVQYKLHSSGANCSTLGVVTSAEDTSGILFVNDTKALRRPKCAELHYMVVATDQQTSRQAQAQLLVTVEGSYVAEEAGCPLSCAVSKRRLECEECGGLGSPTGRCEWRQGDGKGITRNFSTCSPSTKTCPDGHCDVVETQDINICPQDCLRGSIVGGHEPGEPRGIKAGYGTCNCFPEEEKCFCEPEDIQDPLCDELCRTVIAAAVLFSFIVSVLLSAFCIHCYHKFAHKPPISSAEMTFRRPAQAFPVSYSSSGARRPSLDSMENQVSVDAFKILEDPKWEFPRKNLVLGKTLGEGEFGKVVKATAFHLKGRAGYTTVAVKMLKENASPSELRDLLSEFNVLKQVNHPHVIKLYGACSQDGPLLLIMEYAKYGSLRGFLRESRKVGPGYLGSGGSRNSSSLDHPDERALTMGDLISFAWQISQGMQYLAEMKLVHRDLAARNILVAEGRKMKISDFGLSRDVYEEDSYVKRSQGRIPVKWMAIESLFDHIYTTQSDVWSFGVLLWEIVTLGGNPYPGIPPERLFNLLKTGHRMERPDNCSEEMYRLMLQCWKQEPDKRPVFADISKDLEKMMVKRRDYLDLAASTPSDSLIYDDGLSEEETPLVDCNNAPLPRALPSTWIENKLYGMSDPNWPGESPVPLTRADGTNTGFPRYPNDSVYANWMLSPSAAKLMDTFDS", "test": "KinomeScan", "type": "binding", "conditions": "1uM"}, "SYK": {"target": "T18, SYK (Homo sapiens, UniProt P43405)", "T18 construct": "purchased DiscoveRx KINOMEscan", "test": "KinomeScan", "type": "binding", "conditions": "1uM"}, "HUNK": {"target": "T19, HUNK (Homo sapiens, UniProt P57058)", "T19 construct": "purchased DiscoveRx KINOMEscan", "test": "KinomeScan", "type": "binding", "conditions": "1uM"}, "[1]": {"target": "T20, RSK2(Kin.Dom.1-N-terminal) (Homo sapiens, UniProt P51812)", "T20 construct": "RSK2(Kin.Dom.1-N-terminal); purchased DiscoveRx KINOMEscan", "test": "KinomeScan", "type": "binding", "conditions": "1uM"}, "PHKG1": {"target": "T21, PHKG1 (Homo sapiens, UniProt Q16816)", "T21 construct": "purchased DiscoveRx KINOMEscan", "test": "KinomeScan", "type": "binding", "conditions": "1uM"}, "MEK4": {"target": "T22, MEK4 (Homo sapiens, UniProt P45985)", "T22 construct": "purchased DiscoveRx KINOMEscan", "test": "KinomeScan", "type": "binding", "conditions": "1uM"}, "WNK1": {"target": "T23, WNK1 (Homo sapiens, UniProt Q9H4A3)", "T23 construct": "purchased DiscoveRx KINOMEscan", "test": "KinomeScan", "type": "binding", "conditions": "1uM"}, "S6K1": {"target": "T24, S6K1 (Homo sapiens, UniProt P23443)", "T24 construct": "purchased DiscoveRx KINOMEscan", "test": "KinomeScan", "type": "binding", "conditions": "1uM"}, "DYRK1B": {"target": "T25, DYRK1B (Homo sapiens, UniProt Q9Y463)", "T25 construct": "purchased DiscoveRx KINOMEscan", "test": "KinomeScan", "type": "binding", "conditions": "1uM"}, "ALK(C1156Y)": {"target": "T26, ALK(C1156Y) (Homo sapiens, UniProt Q9UM73, C1156Y)", "T26 construct": "purchased DiscoveRx KINOMEscan", "test": "KinomeScan", "type": "binding", "conditions": "1uM"}, "CHEK1": {"target": "T27, CHEK1 (Homo sapiens, UniProt O14757)", "T27 construct": "purchased DiscoveRx KINOMEscan", "test": "KinomeScan", "type": "binding", "conditions": "1uM"}, "PIP5K1C": {"target": "T28, PIP5K1C (Homo sapiens, UniProt O60331)", "T28 construct": "purchased DiscoveRx KINOMEscan", "test": "KinomeScan", "type": "binding", "conditions": "1uM"}, "RIPK4": {"target": "T29, RIPK4 (Homo sapiens, UniProt P57078)", "T29 construct": "purchased DiscoveRx KINOMEscan", "test": "KinomeScan", "type": "binding", "conditions": "1uM"}, "MEK2": {"target": "T30, MEK2 (Homo sapiens, UniProt P36507)", "T30 construct": "purchased DiscoveRx KINOMEscan", "test": "KinomeScan", "type": "binding", "conditions": "1uM"}, "EGFR(E746-A750del)": {"target": "T31, EGFR(E746-A750del) (Homo sapiens, UniProt P00533, DEL746-750)", "T31 construct": "purchased DiscoveRx KINOMEscan", "test": "KinomeScan", "type": "binding", "conditions": "1uM"}, "TAOK2": {"target": "T32, TAOK2 (Homo sapiens, UniProt Q9UL54)", "T32 construct": "purchased DiscoveRx KINOMEscan", "test": "KinomeScan", "type": "binding", "conditions": "1uM"}, "PRKR": {"target": "T33, PRKR (Homo sapiens, UniProt P19525)", "T33 construct": "purchased DiscoveRx KINOMEscan", "test": "KinomeScan", "type": "binding", "conditions": "1uM"}, "[2]": {"target": "RPS6KA5(Kin.Dom.2-C-terminal) (Homo sapiens, UniProt O75582)", "sequence (O75582 388-802 limits assumed)": "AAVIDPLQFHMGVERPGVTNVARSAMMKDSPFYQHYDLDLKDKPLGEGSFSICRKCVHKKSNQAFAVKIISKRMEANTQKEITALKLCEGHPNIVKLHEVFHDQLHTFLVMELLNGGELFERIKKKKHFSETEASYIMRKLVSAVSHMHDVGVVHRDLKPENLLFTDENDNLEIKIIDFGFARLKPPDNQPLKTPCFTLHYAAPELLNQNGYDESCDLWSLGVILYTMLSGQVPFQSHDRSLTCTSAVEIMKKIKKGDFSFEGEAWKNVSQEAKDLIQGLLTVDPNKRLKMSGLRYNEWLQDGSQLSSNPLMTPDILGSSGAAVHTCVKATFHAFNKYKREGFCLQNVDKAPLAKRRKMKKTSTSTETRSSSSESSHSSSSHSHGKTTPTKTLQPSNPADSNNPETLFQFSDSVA", "test": "KinomeScan", "type": "binding", "conditions": "1uM"}, "MAP4K4": {"target": "T34, MAP4K4 (Homo sapiens, UniProt O95819)", "T34 construct": "purchased DiscoveRx KINOMEscan", "test": "KinomeScan", "type": "binding", "conditions": "1uM"}, "LRRK2(G2019S)": {"target": "T35, LRRK2(G2019S) (Homo sapiens, UniProt Q5S007, G2019S)", "T35 construct": "purchased DiscoveRx KINOMEscan", "test": "KinomeScan", "type": "binding", "conditions": "1uM"}, "PIM3": {"target": "T36, PIM3 (Homo sapiens, UniProt Q86V86)", "T36 construct": "purchased DiscoveRx KINOMEscan", "test": "KinomeScan", "type": "binding", "conditions": "1uM"}, "ACVR1B": {"target": "T37, ACVR1B (Homo sapiens, UniProt P36896)", "T37 construct": "purchased DiscoveRx KINOMEscan", "T37 sequence (P36896 24-505)": "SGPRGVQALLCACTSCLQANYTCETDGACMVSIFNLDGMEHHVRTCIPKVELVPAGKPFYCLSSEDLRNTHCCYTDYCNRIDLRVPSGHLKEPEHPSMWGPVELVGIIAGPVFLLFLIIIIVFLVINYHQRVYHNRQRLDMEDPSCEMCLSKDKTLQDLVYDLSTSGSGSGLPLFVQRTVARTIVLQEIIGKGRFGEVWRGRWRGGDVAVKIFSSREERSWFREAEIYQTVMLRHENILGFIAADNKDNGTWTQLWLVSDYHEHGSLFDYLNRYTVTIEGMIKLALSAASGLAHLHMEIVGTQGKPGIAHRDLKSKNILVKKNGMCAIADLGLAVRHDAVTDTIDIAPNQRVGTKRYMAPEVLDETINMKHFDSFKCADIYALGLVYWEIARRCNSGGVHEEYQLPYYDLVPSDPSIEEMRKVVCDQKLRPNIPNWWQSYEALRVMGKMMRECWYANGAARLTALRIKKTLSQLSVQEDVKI", "test": "KinomeScan", "type": "binding", "conditions": "1uM"}, "MAK": {"target": "T38, MAK (Homo sapiens, UniProt P20794)", "T38 construct": "purchased DiscoveRx KINOMEscan", "test": "KinomeScan", "type": "binding", "conditions": "1uM"}, "PRKD1": {"target": "T39, PRKD1 (Homo sapiens, UniProt Q15139)", "T39 construct": "purchased DiscoveRx KINOMEscan", "test": "KinomeScan", "type": "binding", "conditions": "1uM"}, "CDK2": {"target": "T40, CDK2 (Homo sapiens, UniProt P24941)", "T40 construct": "purchased DiscoveRx KINOMEscan", "test": "KinomeScan", "type": "binding", "conditions": "1uM"}, "EGFR": {"target": "T41, EGFR (Homo sapiens, UniProt P00533)", "T41 construct": "purchased DiscoveRx KINOMEscan", "T41 sequence (P00533 25-1210)": "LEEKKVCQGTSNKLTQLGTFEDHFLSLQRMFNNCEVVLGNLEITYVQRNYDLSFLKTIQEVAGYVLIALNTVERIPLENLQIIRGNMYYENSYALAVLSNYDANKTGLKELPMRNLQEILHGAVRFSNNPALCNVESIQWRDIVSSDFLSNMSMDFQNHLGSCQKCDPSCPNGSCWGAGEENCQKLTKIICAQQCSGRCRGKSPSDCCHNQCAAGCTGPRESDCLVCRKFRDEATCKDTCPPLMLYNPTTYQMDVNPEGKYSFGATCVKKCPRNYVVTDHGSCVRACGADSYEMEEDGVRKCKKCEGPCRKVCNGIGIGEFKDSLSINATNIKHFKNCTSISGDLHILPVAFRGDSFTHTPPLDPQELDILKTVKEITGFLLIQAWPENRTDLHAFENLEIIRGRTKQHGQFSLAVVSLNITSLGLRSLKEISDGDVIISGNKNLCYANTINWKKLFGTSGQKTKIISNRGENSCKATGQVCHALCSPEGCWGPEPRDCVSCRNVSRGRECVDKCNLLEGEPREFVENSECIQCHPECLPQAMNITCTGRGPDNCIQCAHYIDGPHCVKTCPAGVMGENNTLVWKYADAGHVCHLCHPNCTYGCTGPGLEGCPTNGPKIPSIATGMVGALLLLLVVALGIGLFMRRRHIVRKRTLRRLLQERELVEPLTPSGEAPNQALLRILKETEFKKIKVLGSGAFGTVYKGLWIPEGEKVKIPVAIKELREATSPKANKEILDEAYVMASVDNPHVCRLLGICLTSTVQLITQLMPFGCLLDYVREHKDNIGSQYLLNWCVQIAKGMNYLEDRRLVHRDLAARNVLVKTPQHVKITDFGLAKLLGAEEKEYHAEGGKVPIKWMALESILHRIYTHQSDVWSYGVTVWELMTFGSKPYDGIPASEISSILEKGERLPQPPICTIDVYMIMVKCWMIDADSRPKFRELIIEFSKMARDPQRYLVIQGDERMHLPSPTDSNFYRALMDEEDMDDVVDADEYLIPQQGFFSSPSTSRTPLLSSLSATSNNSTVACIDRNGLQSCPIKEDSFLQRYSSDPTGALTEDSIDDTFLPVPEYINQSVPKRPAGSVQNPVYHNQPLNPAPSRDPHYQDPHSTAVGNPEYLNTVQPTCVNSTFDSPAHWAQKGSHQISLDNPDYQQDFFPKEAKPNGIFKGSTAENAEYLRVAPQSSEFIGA", "test": "KinomeScan", "type": "binding", "conditions": "1uM"}}, "data": [{"smiles": "Cc1nc(NC(=O)[C@@H](N)C(C)C)sc1-c1cnc(Cl)c(NS(=O)(=O)c2ccccc2)c1", "note": "[PI3KD-IN-015]", "values": [{"measurement": "KinomeScan PDGFRB", "setting": "PDGFRB", "value": 98}, {"measurement": "KinomeScan YSK4", "setting": "YSK4", "value": 100}, {"measurement": "KinomeScan MYLK2", "setting": "MYLK2", "value": 84}, {"measurement": "KinomeScan ABL1-phosphorylated", "setting": "ABL1-phosphorylated", "value": 85}, {"measurement": "KinomeScan ERK8", "setting": "ERK8", "value": 98}, {"measurement": "KinomeScan DDR1", "setting": "DDR1", "value": 100}, {"measurement": "KinomeScan FGFR3", "setting": "FGFR3", "value": 100}, {"measurement": "KinomeScan RAF1", "setting": "RAF1", "value": 100}, {"measurement": "KinomeScan DCAMKL2", "setting": "DCAMKL2", "value": 100}, {"measurement": "KinomeScan TNIK", "setting": "TNIK", "value": 95}, {"measurement": "KinomeScan MKNK2", "setting": "MKNK2", "value": 98}, {"measurement": "KinomeScan LRRK2", "setting": "LRRK2", "value": 100}, {"measurement": "KinomeScan SRMS", "setting": "SRMS", "value": 90}, {"measurement": "KinomeScan DYRK1A", "setting": "DYRK1A", "value": 89}, {"measurement": "KinomeScan SNARK", "setting": "SNARK", "value": 97}, {"measurement": "KinomeScan FAK", "setting": "FAK", "value": 80}, {"measurement": "IC50", "setting": "PI3Kγ", "value": 0.125, "unit": "µM"}, {"measurement": "KinomeScan RET(V804M)", "setting": "RET(V804M)", "value": 100}, {"measurement": "KinomeScan SYK", "setting": "SYK", "value": 100}, {"measurement": "KinomeScan HUNK", "setting": "HUNK", "value": 100}, {"measurement": "KinomeScan RSK2(Kin.Dom.1-N-terminal)", "setting": "[1]", "value": 100}, {"measurement": "KinomeScan PHKG1", "setting": "PHKG1", "value": 100}, {"measurement": "KinomeScan MEK4", "setting": "MEK4", "value": 100}, {"measurement": "KinomeScan WNK1", "setting": "WNK1", "value": 100}, {"measurement": "KinomeScan S6K1", "setting": "S6K1", "value": 100}, {"measurement": "KinomeScan DYRK1B", "setting": "DYRK1B", "value": 100}, {"measurement": "KinomeScan ALK(C1156Y)", "setting": "ALK(C1156Y)", "value": 100}, {"measurement": "KinomeScan CHEK1", "setting": "CHEK1", "value": 100}, {"measurement": "KinomeScan PIP5K1C", "setting": "PIP5K1C", "value": 72}, {"measurement": "KinomeScan RIPK4", "setting": "RIPK4", "value": 100}, {"measurement": "KinomeScan MEK2", "setting": "MEK2", "value": 94}, {"measurement": "KinomeScan EGFR(E746-A750del)", "setting": "EGFR(E746-A750del)", "value": 100}, {"measurement": "KinomeScan TAOK2", "setting": "TAOK2", "value": 96}, {"measurement": "KinomeScan PRKR", "setting": "PRKR", "value": 100}, {"measurement": "KinomeScan RPS6KA5(Kin.Dom.2-C-terminal)", "setting": "[2]", "value": 100}, {"measurement": "KinomeScan MAP4K4", "setting": "MAP4K4", "value": 100}, {"measurement": "KinomeScan LRRK2(G2019S)", "setting": "LRRK2(G2019S)", "value": 100}, {"measurement": "KinomeScan PIM3", "setting": "PIM3", "value": 100}, {"measurement": "KinomeScan ACVR1B", "setting": "ACVR1B", "value": 85}, {"measurement": "KinomeScan MAK", "setting": "MAK", "value": 72}, {"measurement": "KinomeScan PRKD1", "setting": "PRKD1", "value": 100}, {"measurement": "KinomeScan CDK2", "setting": "CDK2", "value": 88}, {"measurement": "KinomeScan EGFR", "setting": "EGFR", "value": 100}]}]}
